Laboratory results reported in ChEMBL document CHEMBL1201862, “PubChem BioAssay data set” (2004).
Structures can show the parent of a compound that is named as a salt.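 Protocol summary: plate cells (96-well), add compound at 5 concentrations, incubate 48 h, interpolate endpoints linearly. The concentration for 50% growth inhibition is given as GI50.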 Active and inactive are the calls of the source. Rule as the data show it: active = GI50 up to about 1.1 µM and inactive = higher.

How the values were obtained:
Assay in all cases: NCI-60 cell line screen, 48 h
A549 = tested on: A549
DLD-1 = tested on: DLD-1
HCT-116 = tested on: HCT-116
HCT-15 = tested on: HCT-15
HL-60 = tested on: HL-60
IGROV-1 = tested on: IGROV-1
M14 = tested on: M14
MOLT-4 = tested on: MOLT-4
NCI-H460 = tested on: NCI-H460
OVCAR-3 = tested on: OVCAR-3
OVCAR-5 = tested on: OVCAR-5
SK-MEL-2 = tested on: SK-MEL-2
SK-MEL-5 = tested on: SK-MEL-5
SR = tested on: SR
UO-31 = tested on: UO-31
DMS-273 = tested on: DMS-273
Hs-578T = tested on: Hs-578T
MDA-MB-231 = tested on: MDA-MB-231
MDA-MB-435 = tested on: MDA-MB-435
NCI/ADR-RES = tested on: NCI/ADR-RES

| Structure (SMILES) | GI50 (A549) | GI50 (DLD-1) | GI50 (HCT-116) | GI50 (HCT-15) [µM] | GI50 (HL-60) | GI50 (IGROV-1) | GI50 (M14) | GI50 (MOLT-4) | GI50 (NCI-H460) | GI50 (OVCAR-3) | GI50 (OVCAR-5) | GI50 (SK-MEL-2) | GI50 (SK-MEL-5) | GI50 (SR) | GI50 (UO-31) | GI50 (DMS-273) | GI50 (Hs-578T) | GI50 (MDA-MB-231) | GI50 (MDA-MB-435) | GI50 (NCI/ADR-RES) |
| --- | --- | --- | --- | --- | --- | --- | --- | --- | --- | --- | --- | --- | --- | --- | --- | --- | --- | --- | --- | --- |
| Cc1nc(N)nc(N)c1CCCc1ccccc1 | 1.49 µM (inactive) | 12.1 µM (inactive) | 2.7 µM (inactive) | 2.87 | 6.35 µM (inactive) | 6.11 µM (inactive) | 4.78 µM (inactive) | 4.07 µM (inactive) | 3.47 µM (inactive) | 18.6 µM (inactive) | 15.9 µM (inactive) | 7.98 µM (inactive) | 4.94 µM (inactive) | 4.07 µM (inactive) | 20.8 µM (inactive) | – | – | – | – | – |
| Cc1ccc(NC(=O)CCC(=O)C(C#N)c2ccccc2)cc1C (stereo not drawn) | > 100 µM (inactive) | > 100 µM (inactive) | > 100 µM (inactive) | > 100 | > 100 µM (inactive) | > 100 µM (inactive) | > 100 µM (inactive) | > 100 µM (inactive) | > 100 µM (inactive) | > 100 µM (inactive) | > 100 µM (inactive) | > 100 µM (inactive) | > 100 µM (inactive) | – | > 100 µM (inactive) | > 100 µM (inactive) | – | – | – | – |
| C#CC1(O)CC(c2ccccc2)N(C)C(c2ccccc2)C1 (stereo not drawn) | > 100 µM (inactive) | – | 18.4 µM (inactive) | > 100 | > 100 µM (inactive) | > 100 µM (inactive) | > 100 µM (inactive) | > 100 µM (inactive) | > 100 µM (inactive) | > 100 µM (inactive) | > 100 µM (inactive) | > 100 µM (inactive) | > 100 µM (inactive) | – | 67.1 µM (inactive) | > 100 µM (inactive) | – | – | – | – |
| Cc1cc2c(cc1C)[n+]([O-])c(C(=O)/C=C/c1ccccc1Cl)c(C)[n+]2[O-] | 33.9 µM (inactive) | 19.5 µM (inactive) | – | 22.5 | 29.9 µM (inactive) | 20.1 µM (inactive) | 24.1 µM (inactive) | 39.5 µM (inactive) | 26.2 µM (inactive) | 28.7 µM (inactive) | 34.4 µM (inactive) | 27.5 µM (inactive) | 24.4 µM (inactive) | – | 18 µM (inactive) | 29.4 µM (inactive) | – | – | – | – |
| O=C(N/C(=C\c1ccc([N+](=O)[O-])cc1)c1nc2ccccc2[nH]1)c1ccccc1 | 93.5 µM (inactive) | > 100 µM (inactive) | 72.4 µM (inactive) | 45.5 | 70.6 µM (inactive) | > 100 µM (inactive) | > 100 µM (inactive) | > 100 µM (inactive) | > 100 µM (inactive) | – | > 100 µM (inactive) | > 100 µM (inactive) | 86.9 µM (inactive) | – | 21.9 µM (inactive) | – | – | – | – | – |
| O=S1(=O)OCCOS(=O)(=O)C1Br | > 100 µM (inactive) | > 100 µM (inactive) | > 100 µM (inactive) | – | > 100 µM (inactive) | > 100 µM (inactive) | > 100 µM (inactive) | > 100 µM (inactive) | – | > 100 µM (inactive) | – | > 100 µM (inactive) | > 100 µM (inactive) | > 100 µM (inactive) | 39.1 µM (inactive) | > 100 µM (inactive) | – | – | – | – |
| COc1cccc(NC(=O)/C(CS(=O)(=O)CCC(C(C)=O)C(C)=O)=N/NC(C)(C)C)c1 | > 100 µM (inactive) | > 100 µM (inactive) | > 100 µM (inactive) | > 100 | > 100 µM (inactive) | > 100 µM (inactive) | > 100 µM (inactive) | > 100 µM (inactive) | > 100 µM (inactive) | > 100 µM (inactive) | > 100 µM (inactive) | > 100 µM (inactive) | > 100 µM (inactive) | – | > 100 µM (inactive) | > 100 µM (inactive) | – | – | – | – |
| COc1ccc(OC)c(/C=C(/C#N)c2ccccc2)c1 | 13.2 µM (inactive) | 28.7 µM (inactive) | 49.3 µM (inactive) | 18.9 | 3.95 µM (inactive) | 31.7 µM (inactive) | 33.3 µM (inactive) | 12.9 µM (inactive) | 15.8 µM (inactive) | 28.2 µM (inactive) | 56 µM (inactive) | 5.82 µM (inactive) | 13.2 µM (inactive) | – | – | 4.22 µM (inactive) | – | – | – | – |
| NC(=S)Nc1nnc(-c2ccc(-c3nnc(NC(N)=S)o3)cc2)o1 | > 100 µM (inactive) | > 100 µM (inactive) | > 100 µM (inactive) | > 100 | > 100 µM (inactive) | > 100 µM (inactive) | > 100 µM (inactive) | > 100 µM (inactive) | > 100 µM (inactive) | > 100 µM (inactive) | > 100 µM (inactive) | > 100 µM (inactive) | > 100 µM (inactive) | – | > 100 µM (inactive) | > 100 µM (inactive) | – | – | – | – |
| OC(CCNC12CC3CC(CC(C3)C1)C2)c1ccccc1 (stereo not drawn) | > 100 µM (inactive) | 99.8 µM (inactive) | 80.7 µM (inactive) | > 100 | > 100 µM (inactive) | 72.1 µM (inactive) | 40.4 µM (inactive) | > 100 µM (inactive) | > 100 µM (inactive) | > 100 µM (inactive) | > 100 µM (inactive) | > 100 µM (inactive) | 43.7 µM (inactive) | – | 43.9 µM (inactive) | 80.4 µM (inactive) | – | – | – | – |
| C#CC[C@]12CC(=O)CC[C@H]1CC1(C2)OCCO1 | > 100 µM (inactive) | > 100 µM (inactive) | > 100 µM (inactive) | > 100 | > 100 µM (inactive) | > 100 µM (inactive) | > 100 µM (inactive) | > 100 µM (inactive) | > 100 µM (inactive) | > 100 µM (inactive) | – | > 100 µM (inactive) | > 100 µM (inactive) | > 100 µM (inactive) | > 100 µM (inactive) | > 100 µM (inactive) | – | – | – | – |
| CN1C(=O)CCC1(O)C1C=CC=CC1 (stereo not drawn) | > 100 µM (inactive) | > 100 µM (inactive) | > 100 µM (inactive) | > 100 | > 100 µM (inactive) | > 100 µM (inactive) | > 100 µM (inactive) | > 100 µM (inactive) | > 100 µM (inactive) | > 100 µM (inactive) | > 100 µM (inactive) | – | > 100 µM (inactive) | > 100 µM (inactive) | > 100 µM (inactive) | > 100 µM (inactive) | – | – | – | – |
| CCCCCCCC(=O)OC[C@H](C[As](=O)(O)O)OC(=O)CCCCCCC | 2.86 µM (inactive) | 14.1 µM (inactive) | 5.24 µM (inactive) | 10.5 | 3.97 µM (inactive) | 3.57 µM (inactive) | 12.3 µM (inactive) | 2.15 µM (inactive) | – | – | – | – | 13.6 µM (inactive) | 3.05 µM (inactive) | 2.27 µM (inactive) | 11.3 µM (inactive) | – | – | – | – |
| c1ccc2c(c1)[nH]c1c2nc2ncccn21 | > 100 µM (inactive) | > 100 µM (inactive) | > 100 µM (inactive) | – | > 10 µM (inactive) | > 100 µM (inactive) | > 100 µM (inactive) | > 100 µM (inactive) | > 100 µM (inactive) | – | > 100 µM (inactive) | > 100 µM (inactive) | > 100 µM (inactive) | > 100 µM (inactive) | > 100 µM (inactive) | > 100 µM (inactive) | – | – | – | – |
| COc1cc2c(cc1OC)C(N(C)C)C(c1ccccc1)=C2Cl (stereo not drawn) | – | 15.1 µM (inactive) | – | 17.5 | 16.1 µM (inactive) | 21.8 µM (inactive) | 19.8 µM (inactive) | 12.5 µM (inactive) | 19 µM (inactive) | 21.3 µM (inactive) | 34 µM (inactive) | 18.7 µM (inactive) | – | 4.54 µM (inactive) | 16.9 µM (inactive) | 16.4 µM (inactive) | – | – | – | – |
| COC(=O)CCC1(NS(=O)(=O)c2ccc(C)cc2)CCC(C(C)(C)C)CC1 (stereo not drawn) | 13.6 µM (inactive) | 17 µM (inactive) | 7.74 µM (inactive) | > 10 | 3 µM (inactive) | 14.6 µM (inactive) | 12.7 µM (inactive) | 6.15 µM (inactive) | 31.2 µM (inactive) | 10.3 µM (inactive) | 16.3 µM (inactive) | 17.3 µM (inactive) | 5.62 µM (inactive) | – | 3.3 µM (inactive) | 12.9 µM (inactive) | – | – | – | – |
| CC(C)C1CC(O)O[C@@H]([C@@H](C)[C@H]2CC(=O)[C@@H]3[C@@H]4[C@@H](O)[C@H](O)[C@H]5[C@@H](O)[C@H](O)CC[C@]5(C)[C@H]4CC[C@]23C)C1 (stereo partly drawn) | 53.1 µM (inactive) | > 100 µM (inactive) | 29.4 µM (inactive) | > 100 | > 100 µM (inactive) | 24.5 µM (inactive) | 91.6 µM (inactive) | > 100 µM (inactive) | > 100 µM (inactive) | > 100 µM (inactive) | – | 53.6 µM (inactive) | 52.2 µM (inactive) | > 100 µM (inactive) | > 100 µM (inactive) | 39.8 µM (inactive) | – | – | – | – |
| COc1cc2oc(-c3ccc(O)cc3O)c(CC=C(C)C)c(=O)c2c(O)c1/C=C/C(C)C [ARTOCARPIN] | 2.75 µM (inactive) | – | 2.1 µM (inactive) | 2.96 | 2.75 µM (inactive) | 3.52 µM (inactive) | 1.77 µM (inactive) | 2.33 µM (inactive) | 3.21 µM (inactive) | 2.08 µM (inactive) | 6.64 µM (inactive) | 6.41 µM (inactive) | 1.69 µM (inactive) | 2.02 µM (inactive) | 2.95 µM (inactive) | – | 3.44 µM (inactive) | 2.55 µM (inactive) | 1.99 µM (inactive) | 2.64 µM (inactive) |
| CN(C)CCOc1ccc(/C(=C(/CCCl)c2ccccc2)c2ccccc2)cc1 [TOREMIFENE CITRATE] | 16.3 µM (inactive) | – | 16.7 µM (inactive) | 14.7 | 5.13 µM (inactive) | 21.4 µM (inactive) | 14.1 µM (inactive) | 18.7 µM (inactive) | 15.7 µM (inactive) | 11.9 µM (inactive) | 18.1 µM (inactive) | 15.5 µM (inactive) | 16 µM (inactive) | 3.23 µM (inactive) | 16.7 µM (inactive) | – | 17.2 µM (inactive) | 16.4 µM (inactive) | 17.4 µM (inactive) | 13.7 µM (inactive) |
